In publication PMC9797592, “TJ-M2010-5, a novel CNS drug candidate, attenuates acute cerebral ischemia-reperfusion injury through the MyD88/NF-κB and ERK pathway” (Frontiers in Pharmacology, 2022):

Columns and labels:
[1] = system: LPS-stimulated BV-2 cells; test: LPS-stimulated BV-2 cell model: morphology and TNF-α/IL-6 ELISA; type: cell-based; conditions: LPS-stimulated BV-2 cells; pretreatment 2 h, LPS 24 h; ELISA
Description: (§1) BV-2 microglial and SH-SY5Y cells were cultured as previously described ([Zhao et al., 2020]). A lipopolysaccharide (LPS)-stimulated BV-2 cell model was established to mimic severe neuroinflammation induced by multiple inflammatory mediators after reperfusion ([Li et al., 2021]). BV-2 cells were pretreated with different concentrations of TJ-5 for 2 h before LPS (1 μg/ml) stimulation (#L2880, Sigma, United States). Twenty-4 hours later, BV-2 cells and the culture supernatants were harvested for subsequent experiments. In addition, ST2825, a recognized MyD88 inhibitor, was used as positive control group.
Enzyme-linked immunosorbent assay (ELISA) kits were used to detect the levels of TNF-α, IL-1β, and IL-6 in the brain. Brain tissue was homogenized in 1 ml of phosphate-buffered saline using a tissue homogenizer. Then, the homogenates were centrifuged at 14,000 g for 10 min at 4 °C. The supernatant was immediately transferred for measurement following the manufacturer’s instructions. BV-2 cells were incubated with different treatments and the supernatants were collected and measured.

NF-κB p65 = NF-κB p65 nuclear translocation in LPS-stimulated BV-2 cells, immunofluorescence; type: cell-based; conditions: 12 h after LPS stimulation
Description: as §1, with “Twenty-4 hours later, BV-2 cells and the culture supernatants were harvested for subsequent experiments.” left out
For BV-2 cells immunofluorescence staining, the cells were fixed with 4% paraformaldehyde for 10 min and permeabilized with 0.5% Triton X-100 for 10 min. After blocking with goat serum, the cells were sequentially incubated with the primary antibody, secondary antibody, and Hoechst in sequence. Images were captured using a confocal microscope. The fluorescence intensity was analyzed using ImageJ software.

CIRI mice = test: MCAO cerebral ischemia-reperfusion injury model: neurological deficit score and TTC infarct volume; type: in vivo, C57BL/6 mice; conditions: edaravone 3 mg/kg i.v. at 1 h of ischemia; 24 h reperfusion; TTC; I/R group 34.24%
Description: Male C57BL/6 mice (Beijing Vital River Laboratory Animal Technology Co. Ltd., Beijing, China) weighing 22–28 g and aged 8–10 weeks were used. All animal experiments were approved by the Institutional Animal Care and Use Committee of Tongji Hospital (Wuhan, China). All procedures were performed in accordance with specific pathogen-free standards. Mice were randomly divided into the following seven groups: sham, I/R, vehicle (I/R + saline), I/R + TJ-5 (5 mg/kg), I/R + TJ-5 (10 mg/kg), I/R + TJ-5 (15 mg/kg), and I/R + edaravone (3 mg/kg).
The mice were anesthetized with 1% pentobarbital sodium solution via intraperitoneal injection, and the body temperature was maintained at 37.0°C–37.5°C. The middle cerebral artery occlusion (MCAO) model was established according to the Longa method, as described previously ([Longa et al., 1989]). In brief, the right carotid artery was carefully separated and exposed. A silicon-coated embolic suture (Doccol, United States) was inserted slowly from the external carotid artery (ECA) into the internal carotid artery (ICA) until it reached the middle cerebral artery (MCA). After 1 h of ischemia, the embolic suture was withdrawn. The surgical procedure in the sham group was the same as that in the I/R group, but the MCA was not obstructed.
After 24 h of reperfusion, each group of mice was scored blindly, according to the scoring system of the Longa method ([Longa et al., 1989]). The score was 0 for no obvious neurological deficit, one for inability to fully extend the left forelimb, two for turning to the left, three for leaning to the left while walking, and four for the inability to walk spontaneously and impaired consciousness.
The mice were sacrificed 24 h after I/R. Mouse brains were harvested for the measurement of cerebral infarct volume. The brains were frozen at −80°C for 5 min and cut into five 2-mm thick slices. The slices were then placed in a small dish, 2% 2,3,5-triphenyltetrazolium chloride (TTC) solution (Sigma, United States) was added, and 4% paraformaldehyde was used for fixation. Images were captured using a digital camera. ImageJ software was used to measure the volume of the brain infarction.

For `NC(=O)[C@H]1CCS[C@@H]2C[C@]3(CCCN3C(=O)Cc3ccc(NC(=O)COc4ccc(Cl)cc4Cl)cc3)C(=O)N12` [ST2825, reference compound], the “levels of TNF-α and IL-6 in supernatants” value [1] was “same anti-inflammatory effect” and the “LPS-induced NF-κB p65 nuclear translocation” value (NF-κB p65) was “same”.
For `CC1=NN(c2ccccc2)C(=O)C1` [edaravone, reference compound], the “percentage of infarct volume” value (CIRI mice) was 18.59%.
